compound: NC(=O)CCCCC1CCSS1 [lipoamide]; test: thermal stability z-score vs DMSO; higher = more thermally stabilized by treatment; conditions: HeLa; lipoamide concentration 100 µM; arsenate co-treatment: none
Procedure: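 Cellular thermal proteome profiling in HeLa cells. Cells were treated with 100 µM lipoamide for 1 h, with or without 1 mM arsenate for a further 1 h, then heated to ten temperatures (37-66.3 °C), and soluble protein was quantified by TMT mass spectrometry relative to 0.1% DMSO controls. The thermal stability score (sum of log2 fold changes minus the abundance score) was transformed to a z-score; mean of n = 3 experiments.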
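Also: each temperature applied for 3 min, abundance score taken as mean log2 fold change at the two lowest temperatures, z-score obtained by mean subtraction and division by SD.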

Sequence of UniProt P04049 (P04049 whole entry): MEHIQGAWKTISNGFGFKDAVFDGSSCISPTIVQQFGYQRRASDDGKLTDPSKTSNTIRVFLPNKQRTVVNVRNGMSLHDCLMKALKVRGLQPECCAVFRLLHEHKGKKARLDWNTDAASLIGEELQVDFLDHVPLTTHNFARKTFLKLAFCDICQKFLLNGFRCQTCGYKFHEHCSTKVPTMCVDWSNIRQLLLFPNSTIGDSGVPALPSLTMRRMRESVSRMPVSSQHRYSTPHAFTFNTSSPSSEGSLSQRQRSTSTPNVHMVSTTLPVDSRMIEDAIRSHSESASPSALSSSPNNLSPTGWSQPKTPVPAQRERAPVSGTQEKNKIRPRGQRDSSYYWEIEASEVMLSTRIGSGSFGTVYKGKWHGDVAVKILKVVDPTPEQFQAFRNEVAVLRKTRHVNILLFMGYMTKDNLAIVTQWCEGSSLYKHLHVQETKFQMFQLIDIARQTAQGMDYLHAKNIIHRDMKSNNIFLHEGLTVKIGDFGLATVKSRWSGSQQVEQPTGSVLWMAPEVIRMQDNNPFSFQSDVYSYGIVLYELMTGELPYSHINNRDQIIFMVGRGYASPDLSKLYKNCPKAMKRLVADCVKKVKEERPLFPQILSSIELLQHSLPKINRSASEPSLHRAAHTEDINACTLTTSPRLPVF
Sequence of UniProt P48444 (P48444 whole entry): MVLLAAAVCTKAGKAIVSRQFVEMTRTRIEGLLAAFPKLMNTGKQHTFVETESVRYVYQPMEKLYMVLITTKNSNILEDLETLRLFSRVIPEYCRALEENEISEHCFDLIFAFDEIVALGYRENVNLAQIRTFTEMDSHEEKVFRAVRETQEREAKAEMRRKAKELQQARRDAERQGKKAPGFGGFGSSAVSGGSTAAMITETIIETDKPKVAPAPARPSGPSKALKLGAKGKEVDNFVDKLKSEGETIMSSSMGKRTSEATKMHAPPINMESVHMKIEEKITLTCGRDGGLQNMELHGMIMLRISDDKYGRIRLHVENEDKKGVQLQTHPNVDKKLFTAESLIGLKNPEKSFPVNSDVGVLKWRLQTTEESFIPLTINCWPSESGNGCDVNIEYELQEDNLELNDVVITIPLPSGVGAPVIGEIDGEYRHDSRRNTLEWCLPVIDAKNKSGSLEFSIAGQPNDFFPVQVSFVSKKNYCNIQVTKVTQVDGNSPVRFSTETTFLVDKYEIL
Sequence of UniProt Q00536 (Q00536 whole entry): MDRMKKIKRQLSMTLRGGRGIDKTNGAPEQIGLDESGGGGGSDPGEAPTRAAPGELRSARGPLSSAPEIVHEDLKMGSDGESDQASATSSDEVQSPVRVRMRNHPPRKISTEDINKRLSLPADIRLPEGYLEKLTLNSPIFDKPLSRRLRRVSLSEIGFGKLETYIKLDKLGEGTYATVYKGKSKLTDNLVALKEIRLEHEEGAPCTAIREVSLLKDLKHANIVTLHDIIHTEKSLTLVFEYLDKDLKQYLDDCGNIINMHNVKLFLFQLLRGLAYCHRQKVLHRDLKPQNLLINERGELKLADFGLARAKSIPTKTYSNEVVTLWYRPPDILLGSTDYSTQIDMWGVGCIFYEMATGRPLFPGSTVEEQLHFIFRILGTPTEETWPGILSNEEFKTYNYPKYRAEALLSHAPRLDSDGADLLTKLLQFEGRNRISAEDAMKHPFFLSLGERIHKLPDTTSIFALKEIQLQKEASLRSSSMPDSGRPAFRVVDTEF
Sequence of UniProt P25786 (P25786 whole entry): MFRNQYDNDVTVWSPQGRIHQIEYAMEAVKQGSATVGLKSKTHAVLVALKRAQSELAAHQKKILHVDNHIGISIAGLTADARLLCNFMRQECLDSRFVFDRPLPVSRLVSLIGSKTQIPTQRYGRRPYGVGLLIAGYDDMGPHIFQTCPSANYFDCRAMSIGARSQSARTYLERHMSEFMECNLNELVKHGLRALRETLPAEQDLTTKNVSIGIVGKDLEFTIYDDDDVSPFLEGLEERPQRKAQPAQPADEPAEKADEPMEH
Sequence of UniProt Q16822 (Q16822 whole entry): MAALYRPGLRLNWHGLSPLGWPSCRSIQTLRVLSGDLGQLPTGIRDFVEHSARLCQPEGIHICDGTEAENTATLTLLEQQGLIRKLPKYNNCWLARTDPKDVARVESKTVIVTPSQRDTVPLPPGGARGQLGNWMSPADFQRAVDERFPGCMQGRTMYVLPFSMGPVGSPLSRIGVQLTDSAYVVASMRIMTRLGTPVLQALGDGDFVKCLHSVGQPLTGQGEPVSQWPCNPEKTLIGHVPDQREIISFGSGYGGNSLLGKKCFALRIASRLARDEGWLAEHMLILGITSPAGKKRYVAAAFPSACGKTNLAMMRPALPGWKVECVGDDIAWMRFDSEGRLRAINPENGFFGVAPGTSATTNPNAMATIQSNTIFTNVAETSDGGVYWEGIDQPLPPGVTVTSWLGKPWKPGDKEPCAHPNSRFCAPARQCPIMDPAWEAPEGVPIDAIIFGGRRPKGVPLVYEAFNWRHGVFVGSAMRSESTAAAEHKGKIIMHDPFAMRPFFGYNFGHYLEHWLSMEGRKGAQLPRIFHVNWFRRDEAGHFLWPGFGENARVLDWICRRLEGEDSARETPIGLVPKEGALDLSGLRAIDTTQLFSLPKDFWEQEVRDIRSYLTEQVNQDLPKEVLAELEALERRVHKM
Sequence of UniProt Q9GZM5 (Q9GZM5 whole entry): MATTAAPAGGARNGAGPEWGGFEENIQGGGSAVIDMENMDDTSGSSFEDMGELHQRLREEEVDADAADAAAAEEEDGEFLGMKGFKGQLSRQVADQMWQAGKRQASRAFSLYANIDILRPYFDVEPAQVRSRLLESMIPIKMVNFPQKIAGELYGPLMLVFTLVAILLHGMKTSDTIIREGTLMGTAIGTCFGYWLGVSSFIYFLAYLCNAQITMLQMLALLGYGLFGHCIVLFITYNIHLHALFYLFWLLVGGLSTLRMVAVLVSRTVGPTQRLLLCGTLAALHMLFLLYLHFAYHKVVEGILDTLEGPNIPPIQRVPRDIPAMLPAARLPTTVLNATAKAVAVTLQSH
Sequence of UniProt Q96D71 (Q96D71 whole entry): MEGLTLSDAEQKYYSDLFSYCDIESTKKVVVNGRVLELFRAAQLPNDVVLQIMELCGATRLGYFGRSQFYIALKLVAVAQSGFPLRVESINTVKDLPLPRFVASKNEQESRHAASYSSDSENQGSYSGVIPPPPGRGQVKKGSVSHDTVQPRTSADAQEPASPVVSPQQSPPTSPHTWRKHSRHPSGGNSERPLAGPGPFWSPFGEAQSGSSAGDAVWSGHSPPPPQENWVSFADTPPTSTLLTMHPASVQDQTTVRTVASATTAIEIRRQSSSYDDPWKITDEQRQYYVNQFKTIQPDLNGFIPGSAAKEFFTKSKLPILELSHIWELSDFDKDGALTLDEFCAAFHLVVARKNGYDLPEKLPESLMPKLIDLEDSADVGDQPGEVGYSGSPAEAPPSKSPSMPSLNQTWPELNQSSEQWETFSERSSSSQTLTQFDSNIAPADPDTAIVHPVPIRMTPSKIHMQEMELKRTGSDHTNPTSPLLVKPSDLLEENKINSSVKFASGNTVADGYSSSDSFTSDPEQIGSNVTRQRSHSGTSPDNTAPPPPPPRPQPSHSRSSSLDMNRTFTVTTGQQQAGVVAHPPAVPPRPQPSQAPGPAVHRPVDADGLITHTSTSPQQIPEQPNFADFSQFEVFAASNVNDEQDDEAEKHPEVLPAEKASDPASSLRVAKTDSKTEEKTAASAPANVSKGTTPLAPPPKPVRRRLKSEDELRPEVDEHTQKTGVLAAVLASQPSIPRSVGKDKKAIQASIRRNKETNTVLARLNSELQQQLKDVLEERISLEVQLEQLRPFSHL
Sequence of UniProt P55072 (P55072 whole entry, looked up): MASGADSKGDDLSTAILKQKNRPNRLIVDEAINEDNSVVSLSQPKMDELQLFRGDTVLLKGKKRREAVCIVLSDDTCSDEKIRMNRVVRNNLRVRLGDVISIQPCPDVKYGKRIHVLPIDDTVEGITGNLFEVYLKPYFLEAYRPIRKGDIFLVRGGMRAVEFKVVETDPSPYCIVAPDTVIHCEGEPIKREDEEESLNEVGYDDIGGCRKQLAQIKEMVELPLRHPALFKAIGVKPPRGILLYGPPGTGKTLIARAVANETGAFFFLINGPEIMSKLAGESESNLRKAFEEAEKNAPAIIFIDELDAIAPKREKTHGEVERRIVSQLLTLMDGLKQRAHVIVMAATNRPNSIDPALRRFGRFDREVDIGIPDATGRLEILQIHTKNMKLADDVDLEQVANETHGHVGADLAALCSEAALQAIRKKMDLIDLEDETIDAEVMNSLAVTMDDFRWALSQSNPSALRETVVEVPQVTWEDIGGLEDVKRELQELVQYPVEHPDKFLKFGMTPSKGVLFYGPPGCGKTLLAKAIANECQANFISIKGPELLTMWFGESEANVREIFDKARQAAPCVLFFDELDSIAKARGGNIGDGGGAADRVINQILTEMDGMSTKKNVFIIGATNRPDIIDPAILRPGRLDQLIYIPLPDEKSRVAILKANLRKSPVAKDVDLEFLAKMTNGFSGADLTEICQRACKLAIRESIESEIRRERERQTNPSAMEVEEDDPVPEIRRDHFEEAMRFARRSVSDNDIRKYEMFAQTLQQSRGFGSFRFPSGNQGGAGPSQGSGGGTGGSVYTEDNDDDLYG
Sequence of UniProt Q13829 (Q13829 whole entry): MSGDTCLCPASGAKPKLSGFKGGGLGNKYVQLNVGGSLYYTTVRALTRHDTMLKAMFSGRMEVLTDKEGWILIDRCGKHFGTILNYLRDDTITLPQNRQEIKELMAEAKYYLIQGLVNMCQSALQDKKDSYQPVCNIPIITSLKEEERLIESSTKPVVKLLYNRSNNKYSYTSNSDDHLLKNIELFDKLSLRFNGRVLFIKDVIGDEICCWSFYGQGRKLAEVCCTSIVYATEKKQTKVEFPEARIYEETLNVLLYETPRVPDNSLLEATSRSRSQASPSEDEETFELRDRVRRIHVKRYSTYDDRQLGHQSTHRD
Sequence of UniProt P09382 (P09382 whole entry): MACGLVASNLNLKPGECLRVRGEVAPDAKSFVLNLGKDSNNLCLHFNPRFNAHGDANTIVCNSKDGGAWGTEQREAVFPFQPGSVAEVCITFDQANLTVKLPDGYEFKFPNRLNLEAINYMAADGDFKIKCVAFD

Target	thermal stability z-score
PCK2 (UniProt Q16822)	-0.0889
PANX1 (UniProt Q96RD7)	0.0977
PSMA1 (UniProt P25786)	0.284
RNASEH2B (UniProt Q5TBB1)	0.517
VCP (UniProt P55072)	0.118
PLOD1 (UniProt Q02809)	-3.77
RAF1 (UniProt P04049)	0.126
LMF2 (UniProt Q9BU23)	-0.61
MTX1 (UniProt Q13505)	0.061
CHPF2 (UniProt Q9P2E5)	-0.516
TPCN1 (UniProt Q9ULQ1)	-0.00808
MRPL45 (UniProt Q9BRJ2)	0.0671
RPS6KA3 (UniProt P51812)	-0.345
RBM27 (UniProt Q9P2N5)	-0.373
FAM65A (UniProt Q6ZS17)	0.0539
MAP3K6 (UniProt O95382)	-0.0259
LGALS1 (UniProt P09382)	0.255
SEC22B (UniProt O75396)	-0.0571

Target	thermal stability z-score
ARCN1 (UniProt P48444)	-0.0303
HBS1L (UniProt Q9Y450)	0.0726
PGAM1 (UniProt P18669)	0.244
SLK (UniProt Q9H2G2)	0.153
SEC11A (UniProt P67812)	-1.58
CYB561A3 (UniProt Q8NBI2)	-0.521
YIPF3 (UniProt Q9GZM5)	0.0301
ACOT13 (UniProt Q9NPJ3)	-0.198
TNFAIP1 (UniProt Q13829)	-0.699
CDK16 (UniProt Q00536)	-0.3
TAOK3 (UniProt Q9H2K8)	0.142
CEP350 (UniProt Q5VT06)	-0.182
MAPK9 (UniProt P45984)	-0.817
SCFD1 (UniProt Q8WVM8)	-0.32
DHX38 (UniProt Q92620)	0.0335
GIGYF2 (UniProt Q6Y7W6)	-0.109
RNF2 (UniProt Q99496)	-0.172
REPS1 (UniProt Q96D71)	-0.26

compound: O=[As]([O-])(O)O.[K+] [potassium arsenate]; test: as above; conditions: HeLa; arsenate concentration 1 mM
Procedure: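 Cellular thermal proteome profiling in HeLa cells treated with 1 mM arsenate for 1 h (DMSO pretreatment), heated to ten temperatures (37-66.3 °C). Soluble protein was quantified by TMT mass spectrometry relative to DMSO controls; the thermal stability score was transformed to a z-score; mean of n = 3 experiments.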

Target	thermal stability z-score
ARL1 (UniProt P40616)	0.669
PPOX (UniProt P50336)	0.154
RABEP2 (UniProt Q9H5N1)	1.26
GMPS (UniProt P49915)	-0.42
UXS1 (UniProt Q8NBZ7)	0.198
KTN1 (UniProt Q86UP2)	0.294
SOAT1 (UniProt P35610)	0.731
MIER1 (UniProt Q8N108)	0.0984
PDCL3 (UniProt Q9H2J4)	-0.174
DNAJC15 (UniProt Q9Y5T4)	-0.793
CCDC58 (UniProt Q4VC31)	0.303
QSOX2 (UniProt Q6ZRP7)	0.165
STRIP1 (UniProt Q5VSL9)	1.36
EHBP1 (UniProt Q8NDI1)	-0.166
IFT81 (UniProt Q8WYA0)	-0.072
TARSL2 (UniProt A2RTX5)	0.0722
CDC73 (UniProt Q6P1J9)	0.234
BPTF (UniProt Q12830)	-0.181
UVRAG (UniProt Q9P2Y5)	-0.352
NIT2 (UniProt Q9NQR4)	0.0727
NUDT16 (UniProt Q96DE0)	-0.335
SLC12A6 (UniProt Q9UHW9)	0.131
ATP5F1 (UniProt P24539)	0.226
YBEY (UniProt P58557)	0.131

Target	thermal stability z-score
IK (UniProt Q13123)	1.75
RAD23B (UniProt P54727)	0.357
MLLT4 (UniProt P55196)	-0.113
AMBRA1 (UniProt Q9C0C7)	0.446
SOCS6 (UniProt O14544)	0.053
MTERF4 (UniProt Q7Z6M4)	-0.0404
MRPS18A (UniProt Q9NVS2)	0.196
RRAGC (UniProt Q9HB90)	-0.786
VPS8 (UniProt Q8N3P4)	-0.17
GALT (UniProt P07902)	0.174
EEFSEC (UniProt P57772)	-0.884
PCK2 (UniProt Q16822)	0.352
PANX1 (UniProt Q96RD7)	0.123
PSMA1 (UniProt P25786)	0.373
RNASEH2B (UniProt Q5TBB1)	-0.161
VCP (UniProt P55072)	-0.172
PLOD1 (UniProt Q02809)	1.2
RAF1 (UniProt P04049)	-0.0609
LMF2 (UniProt Q9BU23)	0.316
MTX1 (UniProt Q13505)	0.421
CHPF2 (UniProt Q9P2E5)	-0.154
TPCN1 (UniProt Q9ULQ1)	-0.538
MRPL45 (UniProt Q9BRJ2)	0.214
RPS6KA3 (UniProt P51812)	0.388

Target	thermal stability z-score
RBM27 (UniProt Q9P2N5)	-0.145
FAM65A (UniProt Q6ZS17)	-0.0314
MAP3K6 (UniProt O95382)	-0.0305
LGALS1 (UniProt P09382)	-0.756
SEC22B (UniProt O75396)	-0.0449
ARCN1 (UniProt P48444)	0.383
HBS1L (UniProt Q9Y450)	-0.278
PGAM1 (UniProt P18669)	-0.0878
SLK (UniProt Q9H2G2)	-0.419
SEC11A (UniProt P67812)	0.475
CYB561A3 (UniProt Q8NBI2)	-0.949
YIPF3 (UniProt Q9GZM5)	-0.0851
ACOT13 (UniProt Q9NPJ3)	-0.202
TNFAIP1 (UniProt Q13829)	-0.727
CDK16 (UniProt Q00536)	0.0532
TAOK3 (UniProt Q9H2K8)	0.0629
CEP350 (UniProt Q5VT06)	-0.0541
MAPK9 (UniProt P45984)	-0.98
SCFD1 (UniProt Q8WVM8)	0.224
DHX38 (UniProt Q92620)	-0.406
GIGYF2 (UniProt Q6Y7W6)	0.0976
RNF2 (UniProt Q99496)	-0.107
REPS1 (UniProt Q96D71)	0.157

From the supplement of paper PMC12463676, “Small-molecule dissolution of stress granules by redox modulation benefits ALS models” (Nature Chemical Biology, 2025)
